Reference: publication PMC5095511 (Journal of nuclear medicine : official publication, Society …, 2016)
Where “and” joins values, the source holds several entries; their conditions need not be identical. Equal values may be shown once. Values belong to the molecule of their own block, whether it stands above or below them.

Assays:
sEH [1] = target: T1, sEH (Mus musculus, UniProt P34914); format: in vivo, mouse (CD-1); conditions: CD-1 mouse brain, high dose of blocker nor-fluoro-FNDP
T1 sequence (P34914 1-554): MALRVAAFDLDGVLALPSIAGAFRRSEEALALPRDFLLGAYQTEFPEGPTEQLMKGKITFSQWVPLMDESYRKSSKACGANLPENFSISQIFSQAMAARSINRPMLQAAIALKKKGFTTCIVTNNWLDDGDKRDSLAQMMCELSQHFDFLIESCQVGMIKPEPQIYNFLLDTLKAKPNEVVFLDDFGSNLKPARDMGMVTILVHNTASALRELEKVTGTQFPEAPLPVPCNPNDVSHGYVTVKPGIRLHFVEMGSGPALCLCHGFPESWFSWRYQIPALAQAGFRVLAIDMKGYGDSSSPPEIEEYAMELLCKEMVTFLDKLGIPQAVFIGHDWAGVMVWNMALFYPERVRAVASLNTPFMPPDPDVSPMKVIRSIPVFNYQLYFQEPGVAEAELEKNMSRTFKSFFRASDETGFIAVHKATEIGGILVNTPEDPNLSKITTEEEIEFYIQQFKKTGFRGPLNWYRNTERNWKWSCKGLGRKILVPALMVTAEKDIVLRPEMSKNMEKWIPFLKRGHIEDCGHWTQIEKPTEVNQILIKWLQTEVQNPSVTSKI

sEH [2] = test: Dynamic PET imaging of baboon brain, baseline and blocking with nor-fluoro-FNDP; format: in vivo, Papio anubis (baboon)
[3] = Baseline regional brain biodistribution of ^18F-FNDP in CD-1 mice; format: in vivo, mouse (CD-1); conditions: IV, mean ± SD, n=3
sEH [4] = format: in vivo, mouse (sEH-KO, C57BL/6); conditions: baseline
[5] = Radiometabolite analysis of baboon arterial blood/plasma by RP-HPLC; format: in vivo, Papio anubis (baboon); conditions: 90 min post-injection
human sEH = conditions: read-out: human IC50; cited from earlier work

Specific (blocked) binding in striatum, hippocampus and cortex (sEH [1]): 90% | VT in cerebellum (average) (sEH [2]; baboon, baseline, Logan method): 7.9 ± 1.0 | VT in frontal/temporal gyrus and hippocampus (sEH [2]; baboon, baseline, Logan method): > 10.1 | VT in globus pallidus, corpus callosum, white matter, hypothalamus and thalamus (sEH [2]; baboon, baseline, Logan method): > 8.1 | VT in insula, putamen, caudate and amygdala (sEH [2]; baboon, baseline, Logan method): > 11.5 | Regional brain uptake, cortex ([3]; 5 min): 4.69 ± 0.21 %ID/g tissue | Regional brain uptake, hippocampus ([3]; 5 min): 3.29 ± 0.54 %ID/g tissue | Regional brain uptake, hypothalamus ([3]; 5 min): 2.59 ± 0.18 %ID/g tissue | Regional brain uptake, rest of brain ([3]; 5 min): 3.53 ± 0.11 %ID/g tissue | Regional brain uptake, striatum ([3]; 5 min): 5.24 ± 0.45 %ID/g tissue | Regional brain uptake, cerebellum ([3]; 15 min): 1.31 ± 1.01 %ID/g tissue | Regional brain uptake, cortex ([3]; 15 min): 2.92 ± 0.36 %ID/g tissue | Regional brain uptake, hippocampus ([3]; 15 min): 2.51 ± 0.34 %ID/g tissue | Regional brain uptake, hypothalamus ([3]; 15 min): 1.66 ± 0.28 %ID/g tissue | Regional brain uptake, rest of brain ([3]; 15 min): 2.37 ± 0.34 %ID/g tissue | Regional brain uptake, striatum ([3]; 15 min): 3.29 ± 0.36 %ID/g tissue | Regional brain uptake, cerebellum ([3]; 30 min): 1.09 ± 0.16 %ID/g tissue | Regional brain uptake, cortex ([3]; 30 min): 2.07 ± 0.05 %ID/g tissue | Regional brain uptake, hippocampus ([3]; 30 min): 1.76 ± 0.15 %ID/g tissue | Regional brain uptake, hypothalamus ([3]; 30 min): 1.04 ± 0.08 %ID/g tissue | Regional brain uptake, rest of brain ([3]; 30 min): 1.64 ± 0.06 %ID/g tissue | Regional brain uptake, striatum ([3]; 30 min): 2.32 ± 0.15 %ID/g tissue | Regional brain uptake, cerebellum ([3]; 60 min): 0.52 ± 0.07 %ID/g tissue | Regional brain uptake, cortex ([3]; 60 min): 0.87 ± 0.14 %ID/g tissue | Regional brain uptake, hippocampus ([3]; 60 min): 0.81 ± 0.15 %ID/g tissue | Regional brain uptake, hypothalamus ([3]; 60 min): 0.51 ± 0.07 %ID/g tissue | Regional brain uptake, rest of brain ([3]; 60 min): 0.71 ± 0.10 %ID/g tissue | Regional brain uptake, striatum ([3]; 60 min): 1.07 ± 0.14 %ID/g tissue | Regional brain uptake, cerebellum ([3]; 90 min): 0.29 ± 0.04 %ID/g tissue | Regional brain uptake, cortex ([3]; 90 min): 0.45 ± 0.05 %ID/g tissue | Regional brain uptake, hippocampus ([3]; 90 min): 0.43 ± 0.06 %ID/g tissue | Regional brain uptake, hypothalamus ([3]; 90 min): 0.31 ± 0.05 %ID/g tissue | Regional brain uptake, rest of brain ([3]; 90 min): 0.38 ± 0.04 %ID/g tissue | Regional brain uptake, striatum ([3]; 90 min): 0.54 ± 0.07 %ID/g tissue | Regional uptake in striatum, hippocampus and cortex (sEH [4]; C57BL6 control mice, 60 min post-injection): ~ 1 %ID/g | Remaining parent compound in plasma radioactivity [5]: 20% and ~ 20%
SMILES: O=C(NCCC(c1ccccc1)c1ccccc1)c1ccc([18F])nc1 [^18F-FNDP, N-(3,3-diphenylpropyl)-6-^18F-fluoronicotinamide]
Blockade in all brain regions (sEH [2]; baboon PET): 95% | Specificity of sEH radiolabeling (sEH [2]; both animal species (mouse and baboon)): up to 95% | Reduction of uptake in sEH-KO mice as compared with controls (sEH [4]; 60 min after radiotracer injection): ~ 90%
